What was measured:
[1] = Ex Vivo Assay for Bioavailability of MMP-3 Inhibitors (plasma level after dosing); type: in vivo; conditions: rat, po; rats, dosed orally at 100 mg/kg; plasma level read via MMP-3 inhibition against a spiked plasma standard curve
Experimental: Ex Vivo Assay for Bioavailability of MMP-3 Inhibitors
Blood was collected by cardiac puncture from rats at different times after dosing I.V., I.P., or P.O. with compound in order to determine the levels of inhibitor present. Plasma was extracted with 10% TCA in 95% methanol, and placed on ice for 10 minutes. The plasma was then centrifuged for 15 minutes at 14,000 rpm in an Eppendorf microcentrifuge. The supernatant was removed, recentrifuged, and the resulting supernatant was diluted 1:10 in 50 mM tricine, pH 8.5. The pH of the sample was adjusted to 7.5, and then assayed in the MMP-3 substance P fluorescent enzymatic assay. Plasma from naive rats was extracted by the same method and used as a negative control. This plasma was also used to prepare a spiked plasma curve of the compound of interest. Known concentrations of the compound were added to control plasma, the plasma was extracted by the same method, and then assayed in the MMP-3 enzymatic assay. A standard curve was prepared that related percent inhbition in the MMP-3 assay to the concentration of drug added in the spiked samples. Based on the percent inhibition in the presence of plasma from dosed rats, the concentration of compound was determined using the standard curve.

truncated MMP-3 = test: Bisacetylated Substance P/MMP-3 Fluorescent Assay; type: biochemical; conditions: bisacetylated substrate with MMP-3
From the text: Bisacetylated Substance P/MMP-3 Fluorescent Assay
A high capacity enzymatic assay was developed to detect potential inhibitors of MMP-3. The assay uses a derivative of a peptide substrate, substance P (Arg-Pro-Lys-Pro-Gln-Gln-Phe-Phe-Gly-Leu-Met), which is cleaved by MMP-3 exclusively at the glutamine-phenylalanine bond. In order to adapt this assay for high throughput screening, we have developed a fluorimetric method of product detection. The production of the hydrolysis product, substance P 7-11, is measured by reaction with fluorescamine, a fluorogenic compound which reacts with the primary amine of this fragment. The substance P substrate is bisacetylated to block the primary amines of the intact substrate. Thus, the resulting fluorescence represents generation of product (7-11 peptide) formed upon cleavage by MMP-3, and is quantitated using a standard curve prepared with known concentrations of 7-11 peptide.
To evaluate inhibition of MMP-3, compounds were prepared at a concentration of 10 mM in 100% methanol, and then further diluted to a 20× molar stock. Five microliters of each drug stock was added to the assay in the presence of 20 nM truncated MMP-3 in 67.5 mM tricine (pH 7.5), 10 mM CaCl2, 40 mM NaCl, and 0.005% Brij 35 in a final volume of 100 microliters. Bisacetylated substance P ([…]) was added, and the assay was run for 1 hour at 25° C. […]

Chain of truncated MMP-3 (P08254 100-272 limits assumed): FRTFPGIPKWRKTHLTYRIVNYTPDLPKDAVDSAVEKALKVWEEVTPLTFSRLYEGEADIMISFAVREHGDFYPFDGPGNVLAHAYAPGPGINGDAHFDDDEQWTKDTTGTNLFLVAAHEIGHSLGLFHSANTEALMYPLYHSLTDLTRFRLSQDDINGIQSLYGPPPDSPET

| Cmax [1] [nM] | Km (truncated MMP-3) [µM] | Molecule | Vmax (truncated MMP-3) [nmoles 7-11 peptide/min] |
| --- | --- | --- | --- |
| 960 |  | CC(C)C[C@@H](C(=O)N[C@H](c1nc2cc(Cl)ccc2[nH]1)C(C)(C)C)[C@H](O)C(=O)NO [Example 86, N-[1(S)-(5-chloro-2-benzimidazolyl)-2,2,2-trimethylethyl]-[3-(N-hydroxyaminocarbonyl)-3(S)-hydroxy-2(R)-isobutyl]propanamide] |  |
|  | 769 ± 52 | bisacetylated substrate: bisacetylated derivative of peptide substrate substance P (Arg-Pro-Lys-Pro-Gln-Gln-Phe-Phe-Gly-Leu-Met), cleaved by MMP-3 | 0.090±0.003 |
